Laboratory results published in the supplement of paper PMC11061612.

How the values were obtained:
Experiment in all cases: Bliss excess, mean over the matrix (fraction); higher = more synergy
[1] = system: NCI-H3122 (Lung Adenocarcinoma)
In short: (§1)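 Cell lines grown in DMEM/F12 or RPMI with 10% FBS were plated in 1536-well plates and held 24 hours at 37°C, 5% CO2 before 72 hours of exposure to two-drug dose matrices, with DMSO typically at 0.2%. CellTiter-Glo 2.0 luminescence gave viability, which was converted to inhibition. Vehicle wells were set to 0 and blank wells to 1. Combination Emax is the second-highest inhibition in the matrix, and Bliss excess is the observed combination effect minus the expected EA + EB − EA·EB, where EA and EB are the single-agent effects.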

[2] = system: RPMI-8226 (Plasma Cell Myeloma)
In short: as §1

[3] = system: KYSE-270 (Esophageal Squamous Cell Carcinoma)
In short: as §1

[4] = system: HCC1187 (Breast Carcinoma)
In short: as §1

[5] = system: NCI-H526 (Small Cell Lung Carcinoma)
In short: as §1

[6] = system: JHH-4 (Hepatocellular Carcinoma)
In short: as §1

[7] = system: G-361 (Melanoma)
In short: as §1

[8] = system: NCCIT (Other Solid Carcinomas)
In short: as §1

[9] = system: H9 (T-Cell Non-Hodgkin's Lymphoma)
In short: as §1

[10] = system: HCC1419 (Breast Carcinoma)
In short: as §1

[11] = system: SK-GT-2 (Gastric Carcinoma)
In short: as §1

[12] = system: NCI-H2731 (Mesothelioma)
In short: as §1

[13] = system: MOLM-13 (Acute Myeloid Leukemia)
In short: as §1

[14] = system: CHSA8926 (Chondrosarcoma)
In short: as §1

[15] = system: ST486 (Burkitt's Lymphoma)
In short: as §1

[16] = system: SU-DHL-5 (B-Cell Non-Hodgkin's Lymphoma)
In short: as §1

[17] = system: SK-GT-4 (Esophageal Adenocarcinoma)
In short: as §1

[18] = system: CW-2 (Colorectal Carcinoma)
In short: as §1

[19] = system: T-T (Esophageal Squamous Cell Carcinoma)
In short: as §1

[20] = system: KP-3 (Pancreatic Carcinoma)
In short: as §1

Row | SMILES | Bliss excess [1] | Bliss excess [2] | Bliss excess [3] | Bliss excess [4] | Bliss excess [5] | Bliss excess [6] | Bliss excess [7] | Bliss excess [8] | Bliss excess [9] | Bliss excess [10] | Bliss excess [11] | Bliss excess [12] | Bliss excess [13] | Bliss excess [14] | Bliss excess [15] | Bliss excess [16] | Bliss excess [17] | Bliss excess [18] | Bliss excess [19] | Bliss excess [20]
1 | CCc1c2c(nc3ccc(O)cc13)-c1cc3c(c(=O)n1C2)COC(=O)[C@]3(O)CC [SN-38] + CN(C)CCCOc1ccc(-c2ccc3ncc4c(c3c2)n(C2CCOCC2)c(=O)n4C)cn1 [AZD0156] (first compound max 0.3 µM, 7x7, partner max 1 µM) | 0.0427 | 0.0218 | -0.0393 | -0.0347 | 0.0215 | 0.0443 | 0.0105 | 0.0163 | 0.116 | -0.0773 | 0.0054 | -0.0407 | 0.0493 | -0.0646 | 0.0498 | 0.0712 | -0.12 | -0.0118 | -0.0151 | -0.0372
2 | CCN(CCO)CCCOc1ccc2c(Nc3cc(CC(=O)Nc4cccc(F)c4)[nH]n3)ncnc2c1 [AZD2811] + O=C(c1cc(Cc2n[nH]c(=O)c3ccccc23)ccc1F)N1CCN(C(=O)C2CC2)CC1 [Olaparib] (first compound max 1 µM, 7x7, partner max 10 µM) | 0.0018 | -0.0137 | 0.0212 | -0.0668 | 0.0486 | -0.0293 | -0.0295 | -0.0195 | -0.0965 | -0.0532 | 0.0218 | 0.0001 | -0.0094 | 0.0124 | -0.0464 | -0.0466 | 0.0123 | 0.0119 | -0.0073 | -0.0484
3 | CN(C)CCCOc1ccc(-c2ccc3ncc4c(c3c2)n(C2CCOCC2)c(=O)n4C)cn1 [AZD0156] + C[C@@H]1COCCN1C2=NC(=NC(=C2)C3(CC3)[S@](=N)(=O)C)C4=C5C=CNC5=NC=C4 [AZD6738] (first compound max 1 µM, 7x7, partner max 10 µM) | 0.0218 | 0.102 | 0.0568 | 0.0161 | -0.0051 | -0.0317 | 0.032 | -0.0174 | 0.0525 | -0.0295 | 0.0033 | -0.0532 | -0.0334 | -0.0328 | 0.0016 | 0.0265 | -0.0006 | -0.0131 | -0.014 | -0.0325
4 | COc1nnc2ccc(N3CCC(c4ccc(OCCN5CCN(C)C(=O)[C@H]5C)cc4)CC3)nn12 [AZD5153] + C[C@@H]1COCCN1C2=NC(=NC(=C2)C3(CC3)[S@](=N)(=O)C)C4=C5C=CNC5=NC=C4 [AZD6738] (first compound max 1 µM, 7x7, partner max 10 µM) | -0.0382 | -0.0505 | -0.0544 | 0.0265 | -0.044 | 0.134 | -0.0191 | -0.0702 | -0.0108 | -0.0517 | 0.0773 | 0.0266 | -0.0068 | 0.0437 | -0.0692 | 0.0107 | -0.0252 | 0.0277 | -0.0179 | 0.0527
5 | CN(CCO)CC[C@H](CSc1ccccc1)Nc1ccc(S(=O)(=O)NC(=O)c2ccc(N3CCC([C@@H](O)c4ccccc4-c4ccc(Cl)cc4)CC3)cc2)cc1S(=O)(=O)C(F)(F)F [AZD4320] + Cn1cnc2c(F)c(Nc3ccc(Br)cc3Cl)c(C(=O)NOCCO)cc21 [Selumetinib] (first compound max 1 µM, 7x7, partner max 3 µM) | 0.0162 | 0.0202 | 0.0148 | 0.0264 | -0.0061 | -0.0091 | 0.028 | -0.0045 | -0.0113 | -0.0211 | 0.0177 | -0.0124 | 0.0296 | -0.0256 | 0.0086 | 0.0368 | 0.0128 | 0.0454 | 0.0564 | 0.0111
6 | Cc1cc2ncnn2cc1Nc1ncc2c(n1)n(C1CCOCC1)c(=O)n2C [AZD7648] + CN(C)CCCOc1ccc(-c2ccc3ncc4c(c3c2)n(C2CCOCC2)c(=O)n4C)cn1 [AZD0156] (first compound max 10 µM, 7x7, partner max 1 µM) | -0.006 | 0.0171 | -0.0004 | -0.0086 | 0.0429 | 0.0025 | 0.0032 | -0.0105 | 0.0458 | -0.0515 | -0.0011 | -0.0326 | 0.0085 | 0.0091 | -0.0071 | 0.0272 | -0.0406 | -0.0088 | 0.0269 | 0.0074
7 | COc1cccc(OCCCN)c1-c1cc(Nc2cnc(C#N)cn2)n[nH]1 [Prexasertib] + C=CCn1c(=O)c2cnc(Nc3ccc(N4CCN(C)CC4)cc3)nc2n1-c1cccc(C(C)(C)O)n1 [AZD1775] (first compound max 1 µM, partner max 1 µM) | 0.124 | 0.0893 | 0.217 | 0.102 | 0.0502 | 0.0703 | 0.0806 | 0.0561 | 0.0958 | -0.0136 | 0.0286 | 0.0338 | 0.036 | -0.0416 | 0.0276 | 0.0644 | 0.0313 | 0.0224 | 0.208 | -0.0138
8 | Cn1cnc2c(F)c(Nc3ccc(Br)cc3Cl)c(C(=O)NOCCO)cc21 [Selumetinib] + CC(C)n1c(=O)n(C)c2cnc3cc(F)c(-c4ccc(OCCCN5CCCCC5)nc4)cc3c21 [AZD1390] (first compound max 10 µM, 7x7, partner max 0.3 µM) | 0.0111 | 0.0158 | -0.0376 | 0.0068 | -0.0186 | -0.0444 | -0.0582 | -0.041 | -0.0033 | -0.0426 | -0.0423 | -0.0364 | -0.0306 | -0.0477 | -0.0391 | 0.0267 | 0.0162 | -0.0383 | -0.0162 | -0.0456
9 | CC1(C)CCC(CN2CCN(c3ccc(C(=O)NS(=O)(=O)c4ccc(NCC5CCOCC5)c([N+](=O)[O-])c4)c(Oc4cnc5[nH]ccc5c4)c3)CC2)=C(c2ccc(Cl)cc2)C1 [Venetoclax] + Cc1cc2ncnn2cc1Nc1ncc2c(n1)n(C1CCOCC1)c(=O)n2C [AZD7648] (first compound max 1 µM, 7x7, partner max 10 µM) | -0.0201 | 0.0285 | -0.0281 | -0.0061 | 0.0079 | -0.0059 | -0.0147 | -0.0326 | -0.0194 | -0.0116 | -0.0053 | -0.0272 | 0.0014 | -0.0023 | -0.0376 | -0.0362 | -0.093 | 0.0049 | 0.0109 | -0.0358
10 | CN(CCO)CC[C@H](CSc1ccccc1)Nc1ccc(S(=O)(=O)NC(=O)c2ccc(N3CCC([C@@H](O)c4ccccc4-c4ccc(Cl)cc4)CC3)cc2)cc1S(=O)(=O)C(F)(F)F [AZD4320] + C[C@@H](Nc1cc(F)cc(F)c1)c1cc(C(=O)N(C)C)cc2c(=O)cc(N3CCOCC3)oc12 [AZD8186] (first compound max 1 µM, 7x7, partner max 3 µM) | 0.0005 | 0.0151 | 0.0225 | 0.0582 | 0.0434 | 0.0282 | 0.027 | 0.0346 | 0.063 | 0.0282 | 0.0296 | 0.0288 | 0.0619 | 0.0889 | 0.0176 | 0.0003 | -0.0206 | -0.0073 | 0.054 | 0.0002
11 | C[C@@H](c1ccc2nccn2c1)n1nnc2ncc(-c3cnn(C)c3)nc21 [Savolitinib] + CC1(C)CCC(CN2CCN(c3ccc(C(=O)NS(=O)(=O)c4ccc(NCC5CCOCC5)c([N+](=O)[O-])c4)c(Oc4cnc5[nH]ccc5c4)c3)CC2)=C(c2ccc(Cl)cc2)C1 [Venetoclax] (first compound max 1 µM, 7x7, partner max 1 µM) | -0.0394 | -0.0456 | -0.0463 | -0.0494 | 0.0111 | 0.0006 | -0.0764 | -0.0394 | -0.0453 | -0.0225 | -0.0144 | -0.0423 | 0.0025 | 0.0023 | -0.0481 | -0.0977 | -0.0732 | -0.0459 | 0.011 | -0.0762
